From patent publication US11963996B2, “Method of treating knee pain” (ORTHOTROPHIX, Inc., priority 2018, dated 2024)
“Also recorded” adds a separate entry of the source.

What was measured:
[1] = test system: subjects with bilateral patello-femoral knee osteoarthritis; experiment: Phase 2 randomized double-blind placebo-controlled study of TPX-100: patient-reported outcomes (KOOS, WOMAC); format: in vivo, human; details: for KOOS ADL (knee function in activities of daily living) improvement over baseline / WOMAC Function subscale improvement: 200 mg intra-articular x4 once weekly, 6 and 12 months; for KOOS ADL (knee function in activities of daily living) improvement over baseline: Index vs Control (placebo) Knees
Experimental: A multicenter, randomized double-blind, placebo-controlled study was designed to investigate the safety, tolerability, pharmacokinetics, and efficacy of TPX-100 administered in four weekly doses in subjects with bilateral patello-femoral knee osteoarthritis. The study was conducted under an open IND (investigational new drug application) at CDER (Center for Drug Evaluation and Research) of the U.S. FDA (The United States Food and Drug Administration) in compliance with GCP (Good Clinical Practice) and ICH (International Conference on Harmonization of Technical Requirements for Registration of Pharmaceuticals for Human Use) guidelines. Eighteen (18) orthopedic, rheumatologic and family practice centers in the U.S. participated in the study.
(§1) The study was divided into Part A and Part B. The Part A was designed to evaluate safety of intra-articular (I.A.) administration of TPX-100 at different dosing levels (20, 50, 100, or 200 mg per injection in sequential cohorts) in the subjects with osteoarthritis of the knees and to select a dose for Part B. Part B was to evaluate safety and efficacy of the selected dose of TPX-100.
(§2) Subjects in Part A were enrolled in sequential cohorts and randomized to receive 20, 50, 100 or 200 mg of TPX-100 in one knee (Index Knee) and identical placebo in the contralateral (Control) knee. Subjects, sites and sponsor and central MRI readers were blinded as to treatment assignment. A Safety Review Committee (SRC) evaluated safety in each dosing cohort. The SRC assessed safety and determined whether the next higher dosing regimen could be enrolled. All dosing cohorts in Part A were completed and analyzed with regard to safety prior to dose selection and initiation of Part B.
Part A included four (4) intra-articular (I.A.) injections, one per week, in sequential dosing cohorts of 20, 50, 100 and 200 mg TPX-100 versus placebo. Six (6) subjects were enrolled in 20, 50, and 100 mg cohorts, respectively, and nine (9) subjects were enrolled in the 200 mg cohort.
The 200 mg dose was selected for Part B based on safety review and the approval of the SRC. […] Per the Statistical Analysis Plan, these subjects were combined with the nine subjects in the 200 mg cohort of Part A for the efficacy analysis. In total, data from 93 subjects was analyzed for drug efficacy, each of whom received 4 once-weekly injections of TPX-100, 200 mg/dose, in the Index knee and identical placebo in the contralateral knee, as randomly assigned.
In both Part A and Part B, subjects received 4, once-weekly doses of active drug in the knee randomized to active drug in the Index knee and placebo in the contralateral (Control) knee, delivered by the intra-articular route. No other doses of drug or placebo were administered. All subjects visited their respective clinical sites at 3, 6, and 12 months after the first dosing for their safety and efficacy assessments.
On the first dosing day, the randomized subjects were assessed by physical examinations and vital signs. Further, they completed the Knee injury and Osteoarthritis Outcome Score (KOOS), which includes the Western Ontario and McMaster Universities Osteoarthritis Index (WOMAC). The KOOS questionnaire assesses knee-specific activities of daily living, sports and recreation, knee-related quality of life, other symptoms such as stiffness, and knee pain. The KOOS has been used extensively in longitudinal studies of knee osteoarthritis. After assessments were completed, subjects received one intra-articular injection in each knee, with each injection prepared from the vial(s) marked for that knee. One knee received TPX-100, and the contralateral knee received placebo with subject, site, and sponsor blinded to treatment assignment. Subjects were monitored for adverse events during the injections and for a few hours after the injections. Vital signs were also monitored after the injections. […]

[2] = test system: full-thickness chondral defect; details: in vivo; cited from earlier work
[3] = test system: defects in human molar; details: in vivo; cited from earlier work
[4] = test system: subjects with bilateral patello-femoral knee osteoarthritis; experiment: Same study: safety and tolerability; format: in vivo, human
Experimental: as §1, §2
On the first dosing day, the randomized subjects were assessed by physical examinations and vital signs. Further, they completed the Knee injury and Osteoarthritis Outcome Score (KOOS), which includes the Western Ontario and McMaster Universities Osteoarthritis Index (WOMAC). The KOOS questionnaire assesses knee-specific activities of daily living, sports and recreation, knee-related quality of life, other symptoms such as stiffness, and knee pain. The KOOS has been used extensively in longitudinal studies of knee osteoarthritis. After assessments were completed, subjects received one intra-articular injection in each knee, with each injection prepared from the vial(s) marked for that knee. One knee received TPX-100, and the contralateral knee received placebo with subject, site, and sponsor blinded to treatment assignment. Subjects were monitored for adverse events during the injections and for a few hours after the injections. Vital signs were also monitored after the injections.
On the 7th, 14th, and 21st days after the first dosing, subjects received the second, third, and fourth (last) dosing of the same study materials, respectively. Safety and adverse event assessments were obtained as on the first dosing day.
(§3) Subjects returned to their respective study sites at 3, 6 and 12 months after the first dosing day for follow-up evaluations. In addition, the study sites monitored the subject's condition through telephone contact 9 months after the first dosing day. During the 3, 6, and 12 months post-treatment, subjects were evaluated on site with physical examinations, vital signs, serum chemistries, as well as completing patient-reported outcomes including the KOOS. Adverse events and concomitant medications were recorded. MRIs of both knees were obtained during the 6 and 12-month visits.

[5] = test system: healthy volunteers; experiment: GLP toxicology studies and Phase 1 clinical study with healthy volunteers; details: human, in vivo
Excerpt: In non-clinical safety and efficacy studies, TPX-100 was first tested for its bone formation activity.

[6] = test system: subjects with bilateral patello-femoral knee osteoarthritis; experiment: Same study: MRI-based patello-femoral and tibiofemoral cartilage thickness; format: in vivo, human
Experimental: as §3
All KOOS subscale scores, WOMAC Total score and subscale scores, MRI-based patello-femoral and tibiofemoral cartilage thickness, and MRI-based periarticular bone area and 3D bone shape were analyzed.
MRI images were provided to central readers cartilage and periarticular bone measures. Central readers were blind as to treatment assignment.
Statistical analyses were carried out using a two-sided paired t-test at the 5% level of significance. The outcome variables were the differences of the change of the score of each subscale of KOOS, change of cartilage thickness, periarticular bone area, and 3D bone shape score (“B Score”) change from baseline to 6 and 12 months in the treated knee (“Index Knee”) compared with the placebo-exposed knee (“Control Knee”).

[7] = 200 mg IA x4, Index vs Control Knees, 12 months
[8] = Index vs Control Knees, 6 or 12 months

TPX-100: synthetic peptide consisting of 23 amino acids, TDLQERGDNDISPFSGDGQPFKD, derived from human Matrix Extracellular Phosphoglycoprotein (MEPE)
KOOS Sports and Recreation subscale improvement ([1]; 200 mg IA x4, Index vs Control Knees, 6 months): clinically meaningful and statistically significant improvement | KOOS Knee-related QOL subscale improvement [1, 7]: clinically meaningful and statistically significant improvement | KOOS Pain subscale improvement [1, 7]: only a statistical trend (p<0.09) of improvement; also recorded: clinically meaningful improvement in Index Knees as compared to Control Knees at 12 months, with a trend towards statistical significance (p<0.09) | Pain Frequency (KOOS Pain question 1) [1, 7]: statistically significant improvement in Index Knees as compared to Control Knees (p<0.05); also recorded: significantly reduced (p<0.05) | Pain going up or down stairs (KOOS Pain question) [1, 7]: statistically significant improvement in Index Knees as compared to Control Knees (p<0.05); also recorded: significantly improved (p<0.05) | WOMAC Pain domain improvement [1, 7]: clinically meaningful improvement in Index Knees at 12 months compared with Control knees, although the difference did not reach statistical significance | KOOS ADL (knee function in activities of daily living) improvement over baseline [1]: clinically meaningful and statistically significant (p<0.05) improvements | KOOS ADL (knee function in activities of daily living) improvement over baseline ([1]; listed as peptide of SEQ ID No. 1): clinically meaningful and statistically significant (p=0.008) improvement | WOMAC Function subscale improvement ([1]; Index vs Control Knees): same robust improvement in Index Knees as compared to Control Knees | WOMAC Function subscale improvement ([1]; Index vs Control Knees, listed as peptide of SEQ ID No. 1): clinically meaningful and statistically significant (p=0.008) improvement | WOMAC Total score improvement ([1]; Index vs Control Knees, 6 or 12 months, or both): significant improvements in favor of Index knees | Decrease in use of analgesics by participants ([1]; overall, over the 12-month study period): 62.5% | Pain frequency in responders, baseline to 12 months ([1]; responders to treatment, 12 months): decreased from daily pain at baseline to semi-monthly pain at 12 months | Pain frequency in responders, baseline to 12 months ([1]; responders to treatment, 12 months, listed as peptide of SEQ ID No. 1): semi-weekly | Improvement of pain frequency score in responder group ([1]; responders to treatment, baseline score 3 (daily), at 12 months): approximately 1.5 points | Safety and tolerability in goats [2]: safe and well-tolerated | Dentin formation in defects in human molar [3]: reparative dentin formation | Safety and tolerability ([4]; 200 mg per dose, 4 once-weekly intra-articular injections): safe and well tolerated | Dose-limiting toxicities ([4]; Part A, 20, 50, 100 and 200 mg per injection): no dose-limiting toxicities | Severe adverse events related to treatment ([4]; in vivo): no severe adverse events that were related to TPX-100 treatment | Severity of treatment-related adverse events ([4]; in vivo): mild or moderate, transient | Safety in GLP toxicology studies and Phase 1 study [5]: Safety of the TPX-100 peptide was further confirmed | Overall tibiofemoral cartilage thickness change from baseline [6, 8]: not measurably different between Index and Control Knees | Patello-femoral (patella) cartilage thickness change from baseline by MRI (primary endpoint) [6, 8]: no statistically significant difference between Index vs. Control Knees; also recorded: no measurable difference between Index and Control Knees | Tibiofemoral cartilage thickness change in TPX-100-treated responder knees ([6]; knees with clinically meaningful functional improvements, baseline to 12 months): significantly increased
